# Experimental data taken from patent publication US20090291964A1, “Potentiators of Antibacterial Activity” (priority 2003, published 2009).
# Experiments:
# Assay type in all cases: cell-based
# [1] = tested on: E. faecalis ATCC 29212; experiment: MIC by NCCLS microdilution, EtBr/EPI with and without EPI
# Protocol: (§1) 3% sterile laked horse blood (Quad Five, Ryegate, Mont.) was added to assays for E. faecalis and S. Pneumoniae. A final concentration of 1% DMSO was present in all assays.
# (§2) EtBr is a general substrate for many different efflux pumps in bacteria. Markham et al., “Multiple Novel Inhibitors of the NorA Multidrug Transporter of Staphylococcus aureus”, Antimicrob. Agents Chemother. 43:2404-2408 (1999). Since EtBr is a non-specific DNA intercalator, the only known mechanism of resistance to EtBr is via efflux. Markham et al., “Multiple Novel Inhibitors of the NorA Multidrug Transporter of Staphylococcus aureus”, Antimicrob. Agents Chemother. 43:2404-2408 (1999).
# [2] = tested on: S. pneumoniae ATCC 10015; experiment: as above
# Protocol: as §1, §2
# [3] = tested on: S. aureus K2068; experiment: Minimal effective concentration (MEC) of EPI for gatifloxacin
# Protocol: (§3) The MEC was determined as the minimal concentration of EPI that produced the maximal reduction in substrate MIC.
# (§4) Since any given compound may be recognized by an unknown number of efflux pumps in a particular organism, we reasoned that the MEC of A-106 and C-9 should vary for different antibiotics. Also, the MEC of A-106 and C-9 should vary with the degree of efflux expression in a given strain. […] This was confirmed with two other wild type strains, SA-8325-4 and SA-1199 (Table 3).
# The MEC of A-106 and C-9 for gatifloxacin was determined in these efflux mutants. […] A similar result was obtained with efflux mutant K2068, where the MEC for A-106 was 6.25 μg/ml and the MEC for C-9 was 3.1 μg/ml. […] This may reflect that either gatifloxacin is recognized by fewer pumps than EtBr or it is a poorer efflux substrate in general. This is consistent with the finding that the activity of A-106 was non-saturable for EtBr but is saturable for gatifloxacin.
# [4] = tested on: S. aureus SA-1199B (NorA overproducing); experiment: MIC of fluoroquinolones with and without EPI
# Source text: (§5) A variety of strains may be used in these experiments, including, but not limited to, S. aureus ATCC 29213, E. faecalis ATCC 29212, and S. pneumoniae, S. aureus strains SA-1199, SA-1199B, SA-8325-4, and SA-K2068. S. aureus ATCC 29213, E. faecalis ATCC 29212, and S. pneumoniae ATCC 10015 were obtained from the American Type Culture Collection (Manassas, Va.). S. aureus strains SA-1199 (clinical isolate, susceptible), SA-1199B (SA-1199, NorA overproducing, also has A116E GrlA mutation), SA-8325-4 (NCTC 8325 cured of prophages), SA-K2068 (SA-8325-4, non-NorA multidrug efflux pump overproducing mutation) were obtained from Glenn Kaatz (Kaatz et al., “Identification and characterization of a novel efflux-related multidrug resistance phenotype in Staphylococcus aureus”, J. Antimicrob. Chemother. 50:833-838 (2002); 1993; Kaatz et al., “Phenothiazines and thioxanthenes inhibit multidrug efflux pump activity in Staphylococcus aureus”, Antimicrob. Agents Chemother. 47:719-726, Kaatz et al., “Efflux-mediated fluoroquinolone resistance in Staphylococcus aureus. Antimicrob. Agents Chemother.”, 37:1086-1094, 1993)).
# as §1
# Recent more hydrophobic fluoroquinolones such as gatifloxacin and moxifloxacin are less well recognized by NorA; however, recently one other pump in S. aureus has been described which also recognizes hydrophobic fluoroquinolones (Kaatz et al. 2002, supra). To investigate the potential of A-106 and C-9 to block the efflux of several fluoroquinolones in cells with constituitively over-expressed efflux pumps, we used S. aureus strains SA-1199B and K2068 (Table 3). […] Kaatz et al., “Phenothiazines and thioxanthenes inhibit multidrug efflux pump activity in Staphylococcus aureus”, Antimicrob. Agents Chemother. 47:719-726 (2003).
# [5] = tested on: S. aureus SA-1199 (clinical isolate, susceptible); experiment: MIC of fluoroquinolones with and without EPI; settings: S. aureus SA-1199; EPI at 4X the MEC for EtBr, VX-710 at 100 μg/ml
# Source text: as §5, §1
# [6] = tested on: S. aureus SA-8325-4; experiment: MIC of fluoroquinolones with and without EPI; settings: S. aureus SA-8325-4; EPI at 4X the MEC for EtBr, VX-710 at 100 μg/ml
# Source text: as §5, §1
# [7] = tested on: S. aureus ATCC 29213; experiment: MIC by NCCLS microdilution, antibacterial agents with and without EPI
# Protocol: 3% sterile laked horse blood (Quad Five, Ryegate, Mont.) was added to assays for E. faecalis and S. Pneumoniae. A final concentration of 1% DMSO was present in all assays. […]
# A-106 and C-9 were tested at their respective MECs in combination with a variety of different classes of antibiotics against S. aureus ATCC 29213 (Table 2).
# [8] = tested on: S. aureus ATCC 29213; experiment: Minimal effective concentration (MEC) of EPI for gatifloxacin; settings: lowest amount of EPI which produces the maximum effect on the MIC of gatifloxacin
# Protocol: as §3, §4
# [9] = E. faecalis ATCC 29212, EPIs used at the MEC, except VX-710 at 100 μg/ml
# [10] = S. pneumoniae ATCC 10015, EPIs used at the MEC, except VX-710 at 100 μg/ml
# [11] = S. aureus SA-1199B, EPI at 4X the MEC for EtBr, VX-710 at 100 μg/ml
# [12] = SA-1199B, EPIs at 4 times MEC for EtBr, A-106 at 100 μg/ml
# [13] = S. aureus ATCC 29213, EPI at 4X the MEC for EtBr, VX-710 at 100 μg/ml
# [14] = S. aureus ATCC 29213, EPIs used at the MEC, except VX-710 at 100 μg/ml
compound,measurement,setting,value
COc1cc(C(=O)C(=O)N2CCCC[C@H]2C(=O)OC(CCCc2cccnc2)CCCc2cccnc2)cc(OC)c1OC [A-106],MIC of EPI,"[1]; E. faecalis ATCC 29212, EPI alone",>100 µg/mL
same,Fold-reduction in EtBr MIC,[1]; [9],8
same,MIC of EtBr with EPI,[1]; [9],0.8 µg/mL
same,intrinsic antibacterial activity of EPI,"[1]; at 100 μg/ml, E. faecalis",no intrinsic antibacterial activity
same,MIC of EPI,"[2]; S. pneumoniae ATCC 10015, EPI alone",>100 µg/mL
same,Fold-reduction in EtBr MIC,[2]; [10],≧16
same,MIC of EtBr with EPI,[2]; [10],≦0.125 μg/ml
same,intrinsic antibacterial activity of EPI,"[2]; at 100 μg/ml, S. pneumoniae",no intrinsic antibacterial activity
same,MEC,"[3]; S. aureus K2068 (nonNorA pump overproducer), lowest amount of EPI which produces the maximum effect on the MIC of gatifloxacin",6.25 µg/mL
same,MEC for gatifloxacin,[3]; efflux mutant K2068,6.25 µg/mL
same,MIC of gatifloxacin with EPI,[4]; S. aureus SA-1199B (NorA overproducer) (Table 4),0.25 µg/mL
same,MIC of EtBr with EPI,[4]; [11],0.4 µg/mL
same,MIC of ciprofloxacin with EPI,[4]; [11],0.5 µg/mL
same,MIC of levofloxacin with EPI,[4]; [11],0.5 µg/mL
same,MIC of norfloxacin with EPI,[4]; [11],2 µg/mL
same,reduction of MIC of ciprofloxacin,[4]; [12],2 fold
same,reduction of MIC of gatifloxacin,[4]; [12],2 fold
same,reduction of MIC of levofloxacin,[4]; [12],1 fold
same,reduction of MIC of norfloxacin,[4]; [12],8 fold
same,Fold-reduction in MIC,"[4]; gatifloxacin, S. aureus SA-1199B (NorA overproducer)",2
same,MIC of EtBr with EPI,[5],0.2 µg/mL
same,MIC of ciprofloxacin with EPI,[5],0.063 µg/mL
same,MIC of gatifloxacin with EPI,[5],0.063 µg/mL
same,MIC of gentamicin with EPI,[5],0.125 µg/mL
same,MIC of levofloxacin with EPI,[5],0.125 µg/mL
same,MIC of norfloxacin with EPI,[5],0.125 µg/mL
same,MIC of EtBr with EPI,[6],<0.1 µg/mL
same,MIC of ciprofloxacin with EPI,[6],0.125 µg/mL
same,MIC of gatifloxacin with EPI,[6],0.125 µg/mL
same,MIC of gentamicin with EPI,[6],0.063 µg/mL
same,MIC of levofloxacin with EPI,[6],0.25 µg/mL
same,MIC of norfloxacin with EPI,[6],0.25 µg/mL
same,MIC of gatifloxacin with EPI,[7]; S. aureus ATCC 29213 (Table 4),0.125 µg/mL
same,"effect on the MICs of gatifloxacin, erythromycin, azithromycin, chloramphenicol, ceftriaxone, and linezolid","[7]; S. aureus ATCC 29213, Table 2",No effect
same,MIC of EPI,"[7]; S. aureus ATCC 29213, EPI alone",>100 µg/mL
same,MIC of EtBr with EPI,[7]; [13],0.2 µg/mL
same,MIC of ciprofloxacin with EPI,[7]; [13],0.063 µg/mL
same,MIC of gatifloxacin with EPI,[7]; [13],0.063 µg/mL
same,MIC of gentamicin with EPI,[7]; [13],0.125 µg/mL
same,MIC of levofloxacin with EPI,[7]; [13],0.125 µg/mL
same,MIC of norfloxacin with EPI,[7]; [13],0.125 µg/mL
same,Fold-reduction in EtBr MIC,[7]; [14],31
same,MIC of EtBr with EPI,[7]; [14],0.2 µg/mL
same,reduction of the MIC of EtBr,"[7]; S. aureus wild type, EPI up to 100 μg/ml, data not shown",30 fold
same,Fold-reduction in MIC,"[7]; gatifloxacin, S. aureus ATCC 29213",1
same,effect of EPI on the MIC of gatifloxacin,[7]; wild type strain ATCC 29213,unaffected
same,MEC,[8],>100 µg/mL
